“And” between values parts separate entries of the source, which are not always exact repeats. Equal entries are not always repeated. Inconclusive results and toxic doses are left out.
Test system: P388 leukemia ip, CD2F1 mice, survival T/C
Assay: NCI In Vivo Anticancer Drug Screen. Data for tumor model P388 Leukemia (intraperitoneal) in CD2F1 (CDF1) mice
Settings: endpoint: median survival time, higher = longer survival
In short: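 Mice carrying the transplanted tumor received test compound or vehicle. Survival was recorded in each group, and the value is the treated-group measurement divided by that of the vehicle-treated control group.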

[1] = dose: 50.0 mg/kg/injection, schedule: Q01DX009 (ip), vehicle: saline with Tween-80
[2] = dose: 100.0 mg/kg/injection, schedule: Q01DX009 (ip), vehicle: saline with Tween-80
[3] = dose: 50.0 mg/kg/injection, schedule: Q01DX005 (ip), vehicle: Klucel (hydroxypropylcellulose) (HPC)
[4] = dose: 100.0 mg/kg/injection, schedule: Q01DX005 (ip), vehicle: Klucel (hydroxypropylcellulose) (HPC)
[5] = dose: 200.0 mg/kg/injection, schedule: Q01DX005 (ip), vehicle: Klucel (hydroxypropylcellulose) (HPC)
[6] = dose: 100.0 mg/kg/injection, schedule: Q01DX005 (ip), vehicle: saline with Tween-80
[7] = dose: 200.0 mg/kg/injection, schedule: Q01DX005 (ip), vehicle: saline with Tween-80
[8] = dose: 60.0 mg/kg/injection, schedule: Q01DX005 (ip), vehicle: saline with Tween-80
[9] = dose: 120.0 mg/kg/injection, schedule: Q01DX005 (ip), vehicle: saline with Tween-80
[10] = dose: 30.0 mg/kg/injection, schedule: Q01DX005 (ip), vehicle: saline with Tween-80
[11] = dose: 25.0 mg/kg/injection, schedule: Q01DX009 (ip), vehicle: saline with Tween-80
[12] = dose: 50.0 mg/kg/injection, schedule: Q01DX009 (ip), vehicle: Klucel (hydroxypropylcellulose) (HPC)
[13] = dose: 100.0 mg/kg/injection, schedule: Q01DX009 (ip), vehicle: Klucel (hydroxypropylcellulose) (HPC)
[14] = dose: 200.0 mg/kg/injection, schedule: Q01DX009 (ip), vehicle: Klucel (hydroxypropylcellulose) (HPC)

## Clc1ccc([Si]23OCCN(CCO2)CCO3)cc1
dose: 0.19 mg/kg/injection, schedule: Q01DX009 (ip), vehicle: Klucel (hydroxypropylcellulose) (HPC)
  T/C: 93 % of control
dose: 0.39 mg/kg/injection, schedule: Q01DX009 (ip), vehicle: Klucel (hydroxypropylcellulose) (HPC)
  T/C: 99 % of control
dose: 0.78 mg/kg/injection, schedule: Q01DX009 (ip), vehicle: Klucel (hydroxypropylcellulose) (HPC)
  T/C: 108 % of control

## Cc1cc(C)c(N(CCO)CCO)cc1C
[1]
  T/C: 99 % of control
[2]
  T/C: 108 % of control
dose: 200.0 mg/kg/injection, schedule: Q01DX009 (ip), vehicle: saline with Tween-80
  T/C: 97 % of control

## CSC(=O)/N=C(\N)NC(=O)c1ccccc1
[3]
  T/C: 95 % of control
[4]
  T/C: 94 % of control
[5]
  T/C: 92 % of control

## COc1cccc(N=C(C)C2C(=O)c3ccccc3C2=O)c1
dose: 50.0 mg/kg/injection, schedule: Q01DX005 (ip), vehicle: saline with Tween-80
  T/C: 109 % of control
[6]
  T/C: 100 % of control
[7]
  T/C: 95 % of control

## O=S(=O)(c1ccc(Cl)cc1)N(CCCCN(S(=O)(=O)c1ccc(Cl)cc1)S(=O)(=O)c1ccc(Cl)cc1)S(=O)(=O)c1ccc(Cl)cc1
[8]
  T/C: 99 % of control
[9]
  T/C: 93 % of control
dose: 240.0 mg/kg/injection, schedule: Q01DX005 (ip), vehicle: saline with Tween-80
  T/C: 90 % of control

## O=C(O)Cc1sc(=O)[nH]c1O
dose: 100.0 mg/kg/injection, schedule: Q04DX003 (ip), vehicle: saline
  T/C: 100 % of control
dose: 200.0 mg/kg/injection, schedule: Q04DX003 (ip), vehicle: saline
  T/C: 100 % of control
dose: 400.0 mg/kg/injection, schedule: Q04DX003 (ip), vehicle: saline
  T/C: 95 % of control

## O=C(NCc1ccccc1)Nc1cccc2c(NC(=O)NCc3ccccc3)cccc12
[10]
  T/C: 91 % of control
[8]
  T/C: 86 % of control and 89 % of control
[9]
  T/C: 86 % of control

## C/C(=C\C(=O)O)Cc1ccccc1 (tested in a mixture with another compound)
dose: 100.0 mg/kg/injection, schedule: Q04DX003 (ip), vehicle: other
  T/C: 108 % of control
dose: 200.0 mg/kg/injection, schedule: Q04DX003 (ip), vehicle: other
  T/C: 100 % of control
dose: 400.0 mg/kg/injection, schedule: Q04DX003 (ip), vehicle: other
  T/C: 108 % of control

## S=C1CC2CCCC(C2)N1 (configuration not stated)
dose: 1.87 mg/kg/injection, schedule: Q01DX005 (ip), vehicle: Klucel (hydroxypropylcellulose) (HPC)
  T/C: 95 % of control
dose: 3.75 mg/kg/injection, schedule: Q01DX005 (ip), vehicle: Klucel (hydroxypropylcellulose) (HPC)
  T/C: 100 % of control
dose: 7.5 mg/kg/injection, schedule: Q01DX005 (ip), vehicle: Klucel (hydroxypropylcellulose) (HPC)
  T/C: 101 % of control and 94 % of control

## COc1cc2cc[n+]3c(C)c4cc5c(cc4cc3c2cc1OC)OCO5 (tested in a mixture with another compound)
dose: 0.88 mg/kg/injection, schedule: Q01DX009 (ip), vehicle: saline
  T/C: 124 % of control
dose: 8.33 mg/kg/injection, schedule: Q01DX009 (ip), vehicle: saline
  T/C: 166 % of control
dose: 12.5 mg/kg/injection, schedule: Q01DX009 (ip), vehicle: saline
  T/C: 175 % of control
dose: 18.7 mg/kg/injection, schedule: Q01DX009 (ip), vehicle: saline
  T/C: 198 % of control

## Clc1ccccc1N1CCN(CCCN2CCN(c3ccccc3Cl)CC2)CC1
[11]
  T/C: 97 % of control
[1]
  T/C: 94 % of control
[2]
  T/C: 100 % of control

## CC(C)(C)N=C(Nc1ccccc1Cl)C(Cl)CSc1ccccc1 (configuration not stated)
[3]
  T/C: 100 % of control and 102 % of control
[4]
  T/C: 100 % of control and 98 % of control
[5]
  T/C: 105 % of control

## Cc1oc(N)c(C#N)c1C
dose: 100.0 mg/kg/injection, schedule: Q01DX009 (ip), vehicle: saline sonified
  T/C: 110 % of control
dose: 200.0 mg/kg/injection, schedule: Q01DX009 (ip), vehicle: saline sonified
  T/C: 115 % of control
dose: 400.0 mg/kg/injection, schedule: Q01DX009 (ip), vehicle: saline sonified
  T/C: 120 % of control

## COc1ccc(CN(CCc2ccc(O)cc2)C(=O)C(F)(F)F)cc1O
dose: 6.25 mg/kg/injection, schedule: Q01DX009 (ip), vehicle: saline with Tween-80
  T/C: 99 % of control
dose: 12.5 mg/kg/injection, schedule: Q01DX009 (ip), vehicle: saline with Tween-80
  T/C: 110 % of control
[11]
  T/C: 107 % of control
[1]
  T/C: 100 % of control

## Cc1cc(C)c2c(c1N)C(=O)CCO2
dose: 7.5 mg/kg/injection, schedule: Q01DX005 (ip), vehicle: saline with Tween-80
  T/C: 96 % of control
dose: 15.0 mg/kg/injection, schedule: Q01DX005 (ip), vehicle: saline with Tween-80
  T/C: 100 % of control
[10]
  T/C: 102 % of control

## CN(N=O)C(=O)NCCNC(=O)C1OC(n2cnc3c(=O)[nH]cnc32)C(O)C1O (configuration not stated)
[6]
  T/C: 106 % of control
[7]
  T/C: 109 % of control
dose: 400.0 mg/kg/injection, schedule: Q01DX005 (ip), vehicle: saline with Tween-80
  T/C: 115 % of control

## COC(=O)CN(CC(=O)OC)C1CC1N(CC(=O)OC)CC(=O)OC (configuration not stated)
[12]
  T/C: 89 % of control
dose: 100.0 mg/kg/injection, schedule: Q01DX001 (ip), vehicle: Klucel (hydroxypropylcellulose) (HPC)
  T/C: 98 % of control
[13]
  T/C: 97 % of control
dose: 200.0 mg/kg/injection, schedule: Q01DX001 (ip), vehicle: Klucel (hydroxypropylcellulose) (HPC)
  T/C: 102 % of control
[14]
  T/C: 95 % of control
dose: 400.0 mg/kg/injection, schedule: Q01DX001 (ip), vehicle: Klucel (hydroxypropylcellulose) (HPC)
  T/C: 89 % of control

## CNc1c2ccccc2nc2ccccc12
dose: 12.5 mg/kg/injection, schedule: Q04DX002 (ip), vehicle: distilled water + Tween-80
  T/C: 98 % of control
dose: 25.0 mg/kg/injection, schedule: Q04DX002 (ip), vehicle: distilled water + Tween-80
  T/C: 100 % of control

## CCCCCCCSc1nc2ccc(N=Cc3ccccc3O)cc2s1
[12]
  T/C: 93 % of control
[13]
  T/C: 103 % of control
[14]
  T/C: 103 % of control

## CCCCCCCCCCCCCCCCCCCCCCCCC(O)C(=O)NC(CO)C(O)C(O)CCCCCCCCCCCCCC (configuration not stated)
dose: 1.56 mg/kg/injection, schedule: Q04DX003 (ip), vehicle: saline with Tween-80
  T/C: 91 % of control
dose: 3.13 mg/kg/injection, schedule: Q04DX003 (ip), vehicle: saline with Tween-80
  T/C: 100 % of control
dose: 6.25 mg/kg/injection, schedule: Q04DX003 (ip), vehicle: saline with Tween-80
  T/C: 95 % of control

## COc1cc(C2SCC(=O)N2c2nnc(C(F)(F)F)s2)cc(OC)c1OC (configuration not stated)
[8]
  T/C: 98 % of control
[9]
  T/C: 88 % of control

## CC(=O)N(O)CC(=O)OCc1ccccc1
dose: 12.5 mg/kg/injection, schedule: Q01DX009 (ip), vehicle: other
  T/C: 96 % of control
dose: 25.0 mg/kg/injection, schedule: Q01DX009 (ip), vehicle: other
  T/C: 104 % of control
dose: 50.0 mg/kg/injection, schedule: Q01DX009 (ip), vehicle: other
  T/C: 102 % of control
dose: 100.0 mg/kg/injection, schedule: Q01DX009 (ip), vehicle: other
  T/C: 111 % of control
dose: 200.0 mg/kg/injection, schedule: Q01DX009 (ip), vehicle: other
  T/C: 100 % of control

## CCCOc1ccc(-c2nc(-c3ccc([N+](=O)[O-])cc3)cs2)cc1
[12]
  T/C: 113 % of control
[13]
  T/C: 104 % of control
[14]
  T/C: 104 % of control

## O=[N+]([O-])c1ccc(/C=C/[n+]2ccc3ccccc3c2)o1
dose: 1.56 mg/kg/injection, schedule: Q01DX009 (ip), vehicle: saline
  T/C: 107 % of control
dose: 3.12 mg/kg/injection, schedule: Q01DX009 (ip), vehicle: saline
  T/C: 103 % of control
dose: 6.25 mg/kg/injection, schedule: Q01DX009 (ip), vehicle: saline
  T/C: 108 % of control and 91 % of control

## C[n+]1c(-c2cccc(-c3ccccc3)c2)c2cc([N+](=O)[O-])ccc2c2ccccc21
dose: 1.56 mg/kg/injection, schedule: Q01DX009 (ip), vehicle: Klucel (hydroxypropylcellulose) (HPC)
  T/C: 103 % of control
dose: 3.13 mg/kg/injection, schedule: Q01DX009 (ip), vehicle: Klucel (hydroxypropylcellulose) (HPC)
  T/C: 103 % of control
dose: 6.25 mg/kg/injection, schedule: Q01DX009 (ip), vehicle: Klucel (hydroxypropylcellulose) (HPC)
  T/C: 106 % of control
dose: 12.5 mg/kg/injection, schedule: Q01DX009 (ip), vehicle: Klucel (hydroxypropylcellulose) (HPC)
  T/C: 111 % of control
dose: 25.0 mg/kg/injection, schedule: Q01DX009 (ip), vehicle: Klucel (hydroxypropylcellulose) (HPC)
  T/C: 109 % of control

Reference: PubChem BioAssay AID330 (DTP/NCI, 2004)
